# In publication doi:10.1101/2023.10.24.563163v2, “Targeting cancer with small molecule pan-KRAS degraders” (biorxiv, 2024):
# Like-named read-outs stand apart in the source and are kept apart here.
# What was measured:
# [1] = target: T1, KRAS^WT (Homo sapiens, UniProt P01116); experiment: cell-based; design: KRAS degradation by capillary electrophoresis immunodetection; conditions: A-375; read-out: Dmax 24 h A375 [%]
# T1 construct: endogenous wild type
# Experimental: (§1) Protein Detection by Capillary Electrophoresis Cells (50 000) were seeded the day before treatment into 96-well clear-flat bottom plates and incubated overnight (37 °C, humidified tissue culture incubator, 5% CO2). Compounds were added from DMSO stock solution using a digital dispenser and cells are incubated at 37 °C as specified (24 hours for KRAS degradation, 6 hours for determination of pERK levels). At the end of the incubation, medium was removed, cells washed with ice cold PBS, PBS removed and 50 µL lysis buffer (Meso Scale Discovery #R60TX-2) supplemented with 1:100 protease inhibitor solution, 1:100 phosphatase inhibitor I, 1:100 phosphatase inhibitor II (Meso Scale Discovery #R70AA-1), 0.5 µL/mL Benzonase (Novagen #70664-3) and 10 mM dithiothreitol added to each well. Plates with lysis buffer were immediately transferred to -80 °C freezer for at least 2 hours and then thawed on ice. Lysates were transferred to a 96 well V-bottom plate and insoluble debris was pelleted by centrifugation for 20 min. at 4 000 rpm. 40 µL of the supernatant were transferred to a fresh Eppendorf PCR plate. Analysis of protein levels was conducted using the Wes System, ProteinSimple (https://www.bio-techne.com/) as specified by the manufacturer. Briefly, Wes Master Mix (12-230 kDa WES Separation Module, 8 × 25 capillary cartridges, ProteinSimple #SM-W004) and molecular weight markers were prepared as specified in the manufacturer’s recommendations. To detect primary antibodies, anti-rabbit (Protein Simple #DM-001) or anti-mouse (Protein Simple #DM-002) detection modules were used. 7.2 µL lysate + 1.8 µL master mix were combined and heated to 95 °C for 5 min. […] Next, we set out to test the ability of a single pan-KRAS degrading molecule, compound 4, to selectively suppress oncogenic signaling and proliferation in cancer cell lines driven by diverse KRAS mutants. To this end, we first confirmed degradation of KRAS by compound 4 in KRAS-dependent (GP2d, SW620 and NCI-H358 expressing KRAS^G12D, - G12V or -G12C, respectively) as well as in KRAS independent (A-375, HEK293) cell lines (Fig. 3A, fig. S4A). […] Both inhibition and degradation repressed the established markers of MAPK signaling pERK (fig. S4B-D) and DUSP6 (Fig. 3B, fig. S4E) in KRAS dependent cell lines. […] Neither degradation nor inhibition had appreciable antiproliferative effects in the KRAS independent cell lines A-375 and HEK293 (Fig. 3C, fig. S4F).
# [2] = system: GP2d; experiment: cells; design: Inhibition of cell proliferation, 5 days; conditions: 120 h, read-out: IC50 Proliferation GP2d
# Excerpt: (§2) Next, we set out to test the ability of a single pan-KRAS degrading molecule, compound 4, to selectively suppress oncogenic signaling and proliferation in cancer cell lines driven by diverse KRAS mutants. To this end, we first confirmed degradation of KRAS by compound 4 in KRAS-dependent (GP2d, SW620 and NCI-H358 expressing KRAS^G12D, - G12V or -G12C, respectively) as well as in KRAS independent (A-375, HEK293) cell lines (Fig. 3A, fig. S4A). […] Both inhibition and degradation repressed the established markers of MAPK signaling pERK (fig. S4B-D) and DUSP6 (Fig. 3B, fig. S4E) in KRAS dependent cell lines. […] Neither degradation nor inhibition had appreciable antiproliferative effects in the KRAS independent cell lines A-375 and HEK293 (Fig. 3C, fig. S4F). […] Pan-KRAS degradation impacts MAPK signaling and cancer cell proliferation.
# [3] = system: A375; experiment: cells; design: pERK levels by capillary electrophoresis; conditions: Homo sapiens, A-375, 6 h
# Experimental: (§3) Protein Detection by Capillary Electrophoresis Cells (50 000) were seeded the day before treatment into 96-well clear-flat bottom plates and incubated overnight (37 °C, humidified tissue culture incubator, 5% CO2). Compounds were added from DMSO stock solution using a digital dispenser and cells are incubated at 37 °C as specified (24 hours for KRAS degradation, 6 hours for determination of pERK levels). At the end of the incubation, medium was removed, cells washed with ice cold PBS, PBS removed and 50 µL lysis buffer (Meso Scale Discovery #R60TX-2) supplemented with 1:100 protease inhibitor solution, 1:100 phosphatase inhibitor I, 1:100 phosphatase inhibitor II (Meso Scale Discovery #R70AA-1), 0.5 µL/mL Benzonase (Novagen #70664-3) and 10 mM dithiothreitol added to each well. Plates with lysis buffer were immediately transferred to -80 °C freezer for at least 2 hours and then thawed on ice. Lysates were transferred to a 96 well V-bottom plate and insoluble debris was pelleted by centrifugation for 20 min. at 4 000 rpm. 40 µL of the supernatant were transferred to a fresh Eppendorf PCR plate. Analysis of protein levels was conducted using the Wes System, ProteinSimple (https://www.bio-techne.com/) as specified by the manufacturer. Briefly, Wes Master Mix (12-230 kDa WES Separation Module, 8 × 25 capillary cartridges, ProteinSimple #SM-W004) and molecular weight markers were prepared as specified in the manufacturer’s recommendations. To detect primary antibodies, anti-rabbit (Protein Simple #DM-001) or anti-mouse (Protein Simple #DM-002) detection modules were used. 7.2 µL lysate + 1.8 µL master mix were combined and heated to 95 °C for 5 min. Th
# [4] = system: GP2d; experiment: cells; design: pERK levels by capillary electrophoresis; conditions: GP2d, 6 h
# Experimental: as §3
# [5] = system: HEK293; experiment: cells; design: pERK levels by capillary electrophoresis; conditions: Homo sapiens, HEK293, 6 h
# Experimental: as §3
# [6] = system: SW620; experiment: cells; design: pERK levels by capillary electrophoresis; conditions: Homo sapiens, SW-620, 6 h
# Experimental: as §3
# [7] = system: GP2d; experiment: cells; design: DUSP6 modulation; conditions: GP2d, 6 h; read-out: IC50 DUSP6
# Excerpt: (§4) Next, we set out to test the ability of a single pan-KRAS degrading molecule, compound 4, to selectively suppress oncogenic signaling and proliferation in cancer cell lines driven by diverse KRAS mutants. To this end, we first confirmed degradation of KRAS by compound 4 in KRAS-dependent (GP2d, SW620 and NCI-H358 expressing KRAS^G12D, - G12V or -G12C, respectively) as well as in KRAS independent (A-375, HEK293) cell lines (Fig. 3A, fig. S4A). […] Both inhibition and degradation repressed the established markers of MAPK signaling pERK (fig. S4B-D) and DUSP6 (Fig. 3B, fig. S4E) in KRAS dependent cell lines. […] Neither degradation nor inhibition had appreciable antiproliferative effects in the KRAS independent cell lines A-375 and HEK293 (Fig. 3C, fig. S4F).
# [8] = system: SW620; experiment: cells; design: DUSP6 modulation; conditions: Homo sapiens, SW-620, 6 h; read-out: IC50 DUSP6
# Excerpt: as §4
# [9] = target: KRAS^G12D (Homo sapiens, UniProt P01116, G12D); experiment: cell-based; design: endogenous; KRAS degradation by capillary electrophoresis immunodetection; conditions: GP2d; read-out: Dmax 24 h GP2d [%]
# Sequence of KRAS^G12D (P01116 whole entry G12D): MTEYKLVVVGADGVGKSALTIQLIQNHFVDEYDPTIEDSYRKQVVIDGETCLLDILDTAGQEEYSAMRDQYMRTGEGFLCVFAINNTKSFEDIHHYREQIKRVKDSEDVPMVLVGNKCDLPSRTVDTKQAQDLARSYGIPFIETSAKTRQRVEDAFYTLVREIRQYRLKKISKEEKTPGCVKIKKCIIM
# Experimental: as §1
# [10] = target: KRAS^G12V (Homo sapiens, UniProt P01116, G12V); experiment: cell-based; design: endogenous; KRAS degradation by capillary electrophoresis immunodetection; conditions: SW-620; read-out: Dmax 24 h SW620 [%]
# Sequence of KRAS^G12V (P01116 whole entry G12V): as the sequence (P01116 whole entry G12D) above, with D12V counted along it
# Experimental: as §1
# [11] = system: A375; experiment: cells; design: Inhibition of cell proliferation, 5 days; conditions: Homo sapiens, A-375, 120 h; read-out: IC50 Proliferation A375
# Excerpt: as §2
# [12] = system: HEK293; experiment: cells; design: Inhibition of cell proliferation, 5 days; conditions: Homo sapiens, HEK293, 120 h; read-out: IC50 Proliferation HEK293
# Excerpt: as §2
# [13] = system: NCI-H358; experiment: cells; design: Inhibition of cell proliferation, 5 days; conditions: Homo sapiens, NCI-H358, 120 h; read-out: IC50 Proliferation NCI-H358
# Excerpt: as §2
# [14] = system: SW620; experiment: cells; design: Inhibition of cell proliferation, 5 days; conditions: Homo sapiens, SW-620, 120 h; read-out: IC50 Proliferation SW620
# Excerpt: as §2
# [15] = system: NCI-H358; experiment: cells; design: pERK levels by capillary electrophoresis; conditions: Homo sapiens, NCI-H358, 6 h
# Experimental: as §3
# [16] = system: NCI-H358; experiment: cells; design: DUSP6 modulation; conditions: Homo sapiens, NCI-H358, 6 h; read-out: IC50 DUSP6
# Excerpt: as §4
# [17] = target: T2, KRAS (Homo sapiens, UniProt P01116, C118S/G12V); experiment: SPR, biotinylated KRAS immobilised; format: binding
# T2 construct: residues 1-169, C118S background; His6 tag removed, E. coli; biotinylated for SPR
# T2 sequence (P01116 1-169 G12V/C118S): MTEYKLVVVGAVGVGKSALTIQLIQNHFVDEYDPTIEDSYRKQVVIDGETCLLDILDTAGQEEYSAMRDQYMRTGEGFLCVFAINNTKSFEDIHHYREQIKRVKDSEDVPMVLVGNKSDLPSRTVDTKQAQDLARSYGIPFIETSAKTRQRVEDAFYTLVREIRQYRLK
# T1 sequence (P01116 whole entry): as the sequence (P01116 whole entry G12D) above, with D12G counted along it
compound,measurement,setting,value
C#Cc1c(F)ccc2cc(O)cc(-c3ncc4c(N5C[C@H]6CC[C@@H](C5)N6)nc(OC[C@@]56CCCN5C[C@H](F)C6)nc4c3F)c12 [MRTX1133],Dmax,[1],< 15%
same,IC50,[2],2.4 nM
same,IC50,[3],> 1000 nM
same,IC50,[4],1.3 nM
same,IC50,[5],> 1000 nM
same,IC50,[6],> 1000 nM
same,IC50,[7],0.1 nM
same,IC50,[8],310 nM
same,Dmax,[9],< 15%
same,Dmax,[10],< 15%
C[C@H](Oc1ccnc(-c2noc([C@@]3(C)CCCc4sc(N)c(C#N)c43)n2)n1)[C@@H]1CCCN1C [BI-2865],IC50,[11],> 1000 nM
same,IC50,[2],251 nM
same,IC50,[12],> 1000 nM
same,IC50,[13],613 nM
same,IC50,[14],208 nM
C=CC(=O)N1CCN(c2nc(=O)n(-c3c(C)ccnc3C(C)C)c3nc(-c4c(O)cccc4F)c(F)cc23)[C@@H](C)C1 [sotorasib],IC50,[13],12.3 nM
same,IC50,[15],29 nM
same,IC50,[16],5.6 nM
C[C@H]1CNCCCN1c1nccc(-c2noc([C@@]3(C)CCCc4sc(N)c(C#N)c43)n2)n1 [compound 1],Kd,[17],25 nM
